Measurements published in paper PMC10699557, “A recombinant approach for stapled peptide discovery yields inhibitors of the RAD51 recombinase” (Chemical Science, 2023).

Assay: Two-component Cys-Cys stapling with divinyltriazine (DVT): double thia-Michael addition on recombinant StrepII-GB1-peptide-His8 fusions, stepwise linker addition (pseudo-dilution), DTT quench
Conditions: the molecule shown is the open-chain precursor, PBS + 200 mM imidazole (2 mM linker stock in DMSO added stepwise), 0.02 mM, scale: 1 = stapled product confirmed by ESI-MS as

With “StrepII-GB1-...GSDP-ACGFSTASGKKLNVSCEALQKAVKLFSDIENIS-DPGS...-His8 (free Cys thiols, + DVT)” as the substance, how does the ring closure, product found (54-membered ring) read?
Its ring closure, product found is 1.

With “StrepII-GB1-...GSDP-SCFSTASGKKLNVSCEALQKAVKLFSDIENIS-DPGS...-His8 (free Cys thiols, + DVT)” as the substance, how does the ring closure, product found (51-membered ring) read?
The ring closure, product found was 1.

For “StrepII-GB1-...GSDP-SSACSGFSTASGKKLNVSTEACQKAVKLFSDIENIS-DPGS...-His8 (free Cys thiols, + DVT)”, which ring closure, product found (66-membered ring) is on record?
Its ring closure, product found is 1.

Which ring closure, product found (33-membered ring) does the source give for “StrepII-GB1-...GSDP-VNSSAFSGFSTASGKKLNVSCEALQKACKLFSDIENIS-DPGS...-His8 (free Cys thiols, + DVT)” here?
The ring closure, product found was 1.

Which ring closure, product found (36-membered ring) does the source give for “StrepII-GB1-...GSDP-VNSSAFSGFSTASGKKLNVSTEALQKACKLFSDIECIS-DPGS...-His8 (free Cys thiols, + DVT)” here?
Its ring closure, product found is 1.
